SMILES strings stand for the structures. Read-outs that look alike come from different tables or passages of the source.

In series [1] the test system is ovarian carcinoma A2780 cells. As to the kind of experiment: MTT viability assay, A2780 cells. As to conditions: for EC50: Homo sapiens, A2780, 48 h; for cytotoxic effect in A2780 cells: alone (MnDPDP: alone or with Dx 3 nM or 30 nM), 48 h, MTT.
Experimental: A2780 cells were co-incubated with MnDPDP, DPDP, and/or Dx. The viability of cells was measured using the methylthiazoletetrazolium (MTT) assay. Briefly, 8000 cells were seeded per well on a 96-well plate and grown overnight under standards. Cells were then exposed for 48 hours to various concentrations of MnDPDP, DPDP, and/or Dx at 37° C. The viability of the cells was then assessed by adding 5 mg/ml MTT to a final concentration of 0.5 mg/ml and incubating cells for a further 4 hours at 37° C. The blue formazan that is formed by mitochondrial dehydrogenases of viable cells was then dissolved overnight at 37° C. by adding 10% SDS and 10 mM HCl to a final concentration of 5% SDS and 5 mM HCl. Finally, the absorbance of the solution was read at 570 nm with a reference at 670 nm in a microplate reader (SpectraMax 340; Molecular Devices, Sunnyvale, Calif.) connected to an Apple Macintosh computer running the program Softmax Pro V1.2.0 (Molecular Devices). Viability is expressed as percent absorbance (A570 nm-A670 nm) relative to the untreated control cells. All values were given as arithmetic means±SD for in vitro cell MTT viability data. In vitro responses of Dx, MnDPDP, and/or DPDP with regard to viability are presented as concentration-effect curves. […] From this analysis, the low and Q7 high pD2 values (negative log of the concentration of Dx that produces half of its maximal inhibition in the two phases, −logIC50) were calculated.
The conditions of series [2]: cited from earlier work.
For series [3] the following is noted: Mn2+ versus Zn2+.
Series [4] deals with human non-small cell lung cancer (NSCLC) U1810 cells. The series can be described thus: MTT viability assay, U1810 cells. Type of series: cell-based. The settings on record: for IC50: 48 h exposure, read-out: IC50 (concentration causing 50% inhibition of viability). The procedure:
The viability of cells was measured using the MTT assay. […] Cells were then exposed for 48 h to 1-1,000 μM DPDP (lot #RDL02090206) or MnDPDP (lot #02090106). […] The viability of U1810 cells in the presence of increasing concentrations of DPDP or MnDPDP is presented as concentration-response curves (mean±S.D.). The individual curves were fitted to the sigmoidal normalized response logistic equation (Graphpad Prism, version 5.02). From this analysis the concentrations causing 50% inhibition (IC50) of the test substances were calculated.

The conditions of series [5]: pigs, ten minutes after injection; cited from earlier work.
The subject of series [6] is infarct size. The settings on record: pigs; MnPLED 3 μmol/kg; cited from earlier work.
For series [7] the following is noted: cited from earlier work. This is another data set of the same source.

`COc1cccc2c1C(=O)c1c(O)c3c(c(O)c1C2=O)C[C@@](O)(C(=O)CO)C[C@@H]3O[C@H]1C[C@H](N)[C@H](O)[C@H](C)O1` [Dx, Doxorubicin, reference compound]: the EC50 in series [1] (read-out: pD2 (-logEC50), first phase (high pD2) of biphasic curve (converted)) was 0.00545 µM; in series [1] (read-out: pD2 (-logEC50), second phase (low pD2) of biphasic curve (converted)), 0.225 µM.

With `Cc1ncc(CO)c(CN(CCN(CC(=O)O)Cc2c(CO)cnc(C)c2O)CC(=O)O)c1O` [PLED, N,N′-dipyridoxyl ethylenediamine-N,N′-diacetic acid], in series [2] (Mn2+), the “stability constant with Mn2+” value is 12.56 logK. The “stability constant with Zn2+” value in series [2] (Zn2+) was 16.68 logK. Also, the “Mn2+ dissociates more readily than Zn2+ (fold)” value in series [3] is given as “about 1000 times”.

For `Cc1ncc(COP(=O)(O)O)c(CN(CCN(CC(=O)O)Cc2c(COP(=O)(O)O)cnc(C)c2O)CC(=O)O)c1O` [DPDP, N,N′-bis-(pyridoxal-5-phosphate)-ethylenediamine-N,N′-diacetic acid], the cancer cells killed result in series [1] (30 μM, A2780 cells) is listed as “approximately 50%”; in series [1] (100 μM, A2780 cells) it was “killing almost all cells”. Further, the “additive effect to the cytotoxic effect of Dx alone” value in series [1] (DPDP 10 μM or 30 μM added to Dx, A2780 cells) is “did not reveal any obvious additive effect”. Moreover, the “cytotoxic effect in A2780 cells” value in series [1] is on record as “had cytotoxic effects”. The “IC50 ratio between MnDPDP and DPDP (times more potent than MnDPDP)” value in series [4] (48 h) is listed as 17 times. Further, in series [4], the IC50 amounted to 52.8 µM. In series [3], the “Mn2+ dissociates more readily than Zn2+ (fold)” value is “about 1000 times”.

`Cc1[nH+]cc(COP(=O)([O-])[O-])c(CN(CCN(CC(=O)[O-])Cc2c(COP(=O)([O-])O)c[nH+]c(C)c2O)CC(=O)[O-])c1O.[Mn].[Na+].[Na+].[Na+]` [MnDPDP]: the “cytotoxic effect in A2780 cells” value in series [1] is “did not have any obvious cytotoxic effects”. For the same compound, in series [5], the “replacement of manganese with zinc” value is given as “all manganese has been replaced with zinc”. For the same compound, the IC50 in series [4] was 437 µM. For the same compound, the “effect on infarct size” value in series [6] is recorded as “did not reduce the infarct size”. The administered manganese released result in series [7] (intravenous injection into humans) is listed as “about 80%”. Further, the “injected manganese that stays bound to the chelator” value in series [7] (man, for a considerable amount of time) is “about 30%”. The “injected MnDPDP transformed into MnPLED” value in series [7] (shortly after intravenous injection in man) was “about 30%”.

The record behind these values is patent US20150313921A1, “Cancer Treatment Methods” (PLEDPHARMA AB, priority 2012, published 2015).
